Measurements taken from patent US20210205322A1, “RICTOR-TARGETED THERAPY IN THE MANAGEMENT OF BRAIN METASTASES” (Albert Einstein College of Medicine, priority 2020, published 2021).
Entries after “also recorded” stand apart in the source; their conditions may differ.

Experiments:
lung cancer cell [1] = experiment: SDF-1α-induced invasion and migration (CXCR4 pathway); assay type: cell-based
Protocol: (§1) In vitro Cell Migration and Invasion Assay: The transwell assay was performed according to manufacturer's protocol (Corning, N.Y.). Briefly, the cells were starved for 24 hours and then seeded on the transwell insert (Corning, N.Y.) in 12-well plates. The bottom of the well contained medium with 10% FBS. After 24 hours, the bottom of the inserts were fixed with 70% ethanol and stained with 0.5% crystal violet. The cells were counted triplicate under microscope.
(§2) In the invasion assay, matrigel (0.8 mg/ml) layer was added on the transwell insert first. After the matrigel layer was solidified, the experiment was performed in the same way as the migration assay.

HCC827 OE cells [2] = experiment: Transwell cell migration and invasion assay in HCC827 OE cells; assay type: cell-based; settings: migration and invasion promoted by RICTOR upregulation (doxycycline)
Protocol: as §1, §2

[3] = test system: RICTOR-amplified H23 lung cancer cells; experiment: Transwell cell migration and invasion assay in H23 cells; assay type: cell-based; settings: in vitro; FIG. 7C
Protocol: as §1, §2

[4] = test system: RICTOR-amplified H1703 lung cancer cells; experiment: Transwell cell migration and invasion assay in H1703 cells; assay type: cell-based; settings: in vitro; FIG. 7C
Protocol: as §1, §2

[5] = test system: H23 lung cancer cells labeled with luciferase reporter gene; experiment: In vivo metastasis assay, stereotactic brain injection model; parameters: species or system mouse
Excerpt: To further test whether RICTOR amplification affects in vivo metastasis, either the inducible H23-R4 or the parental H23 lung cancer cells labeled with luciferase reporter gene (H23-R4-Luc) were implanted in mouse brain stereotactically.

PC9 parental cells = experiment: Cell growth assay, combined treatment of sapanisertib and EGFR TKIs; settings: sapanisertib 5 nM combined with erlotinib, afatinib or osimertinib; FIG. 3C
Protocol: Clonogenic Survival Assay: Logarithmically growing cells were plated in triplicate. All drugs were added for 72 hours and withdrawn afterwards. After 10-14 days, colonies were fixed with 70% EtOH and stained with 0.5% crystal violet (Sigma Aldrich, St Louis, Mo.). Surviving colonies were defined as colonies containing >50 cells.

PC9-R4 = experiment: Drug response by clonogenic survival assay in inducible RICTOR knockdown PC9-R4 cells; assay type: cell-based; settings: for inhibitory effects on cell proliferation: RICTOR knockdown cells vs no knockdown
lung cancer cell [6] = experiment: Cell proliferation with AKT inhibitors; assay type: cell-based; settings: 24-hour treatment
Excerpt: (§3) AKT is a downstream effector of the RICTOR-mTOCR2 pathway, to determine its role in RICTOR-mediated metastasis, the effects of two structurally different AKT inhibitors, AR-42 and ipatasertib were inestigated.

lung cancer cell [7] = experiment: Invasion and migration with AKT inhibitors; assay type: cell-based; settings: for invasion and migration: AKT inhibitor added to inducible RICTOR knockdown; for lung cancer cell invasion and migration: AKT inhibitor alone, FIG. 10A-E
Protocol: as §1, §2, §3

lung cancer cell [8] = experiment: Apoptosis (cleaved PARP) with AKT inhibitors; assay type: cell-based; settings: for apoptosis: AKT inhibitor added to inducible RICTOR knockdown; for apoptosis (cleaved PARP): AKT inhibitor alone
Protocol: (§4) Immunoblotting and Antibodies: All antibodies were purchased from Cell Signaling Technology (Boston, Mass.). Cell lysate was harvested using RIPA buffer and the supernatant was subjected for following steps after centrifugation. Proteins were subjected to 10% SDS-PAGE gel and transferred onto […] nitrocellulose membrane (Biorad, Calif., USA) for western blot analysis. After incubation with primary antibody overnight at 4° C., the membrane was washed and incubated with secondary antibodies. The final blots were developed with a chemiluminesence system (Promega, Wis., USA).
as §3

[9] = test system: erlotinib-resistant HCC827 cell line (ER); experiment: MTS cell viability and clonogenic survival assays in erlotinib-resistant HCC827 cells (ER); assay type: cell-based; settings: Axl-overexpressed ER; FIG. 1I and 1J
Protocol: Cell Growth and Viability Assay: The MTS proliferation assay was performed as described in manufacture protocol (Promega, Wis., USA). Cells were seeded at a density of 2000 cells per well in 96-well plates. After incubating with drugs for 72 hours, MTS reagent was added and the absorbance was measured at 490 nm. Viable cell numbers were determined using the MTS assay kit according to the manufacturer's protocol.

HCC827 OE = settings: RICTOR upregulation with doxycycline; FIG. 2C
Protocol: Next, it was determined whether RICTOR upregulation could result in EGFR TKI resistance. A doxycycline-inducible RICTOR upregulation model in HCC827 cells (HCC827 OE) was generated.

ER3-R4 = experiment: Western blot analysis (c-PARP) of osimertinib-treated ER3-R4 cells; assay type: cell-based; settings: osimertinib-treated cells with RICTOR knockdown; osimertinib 0.5 μM; FIG. 4D
Protocol: as §4
To evaluate whether RICTOR-induced Axl upregulation was a common resistant mechanism for EGFR TKIs, Axl signaling in osimertinib-treated ER3-R4 and HCC827 OE cells was examined. […] Taken together, RICTOR positively regulates EGFR TKI resistance by upregulating Axl expression, which seems to be a common resistance mechanism shared by EGFR TKIs.

HCC827 OE cells [10] = experiment: Western blot analysis (c-PARP) of osimertinib-treated HCC827 OE cells; assay type: cell-based; settings: osimertinib-treated cells with RICTOR upregulation; osimertinib 50 nM; FIG. 4D
Protocol: Immunoblotting and Antibodies: All antibodies were purchased from Cell Signaling Technology (Boston, Mass.). Cell lysate was harvested using RIPA buffer and the supernatant was subjected for following steps after centrifugation. Proteins were subjected to 10% SDS-PAGE gel and transferred onto 0.45 μM nitrocellulose membrane (Biorad, Calif., USA) for western blot analysis. After incubation with primary antibody overnight at 4° C., the membrane was washed and incubated with secondary antibodies. The final blots were developed with a chemiluminesence system (Promega, Wis., USA).

ER cells = experiment: ER mouse tumor xenograft model; assay type: in vivo, mice
Protocol: Xenograft Mouse Studies: Athymic mice (Envigo Laboratory, male, 6-8 weeks old) were inoculated subcutaneously with 5×10^6 NSCLC cells. After 2 days, mice were divided into a vehicle control (water) group and a doxycycline group, with 6 mice in each group. Doxycycline was administered by oral gavage: 100 mg/kg/day. The same volume of water was given to the control group. A total of 20 daily doses were administered in 4 weeks. […] Tumors were measured with calipers twice weekly and the size was calculated as length×width^2/2. The protocol was approved by the Institutional Animal Care and Use Committee.
The in vivo mouse tumor xenograft model was performed using ER cells.

## SDF-1α
Lung cancer cell [1]; activation of the CXCR4 pathway by treatment with SDF-1α
  migration and invasion: increased migration and invasion

## CC(C)n1nc(-c2ccc3oc(N)nc3c2)c2c(N)ncnc21 [TAK228, 5-(4-amino-1-propan-2-yl-3-pyrazolo[3,4-d]pyrimidinyl)-1,3-benzoxazol-2-amine]
HCC827 OE cells [2]
  cell migration and invasion: inhibited
[3]
  migration and invasion: significantly reduced
[4]
  migration and invasion: significantly reduced
[5]; P<0.01, FIG. 8B
  reduction of tumor growth in the brain: approximately 75%
[5]; after 4 weeks of daily oral lavage, 3 out 7
  near complete responses: 43%
[5]; result in words
  tumor growth in the brain: remarkably reduced the lung cancer growth in the brain; also recorded: significantly reduced tumor growth in the brain
PC9 parental cells
  sensitivity of EGFR TKIs in combined treatment: significantly improved the sensitivity of all three inhibitors

## CN(C)C/C=C/C(=O)Nc1cc2c(Nc3ccc(F)c(Cl)c3)ncnc2cc1O[C@H]1CCOC1 [afatinib]
PC9-R4; PC-9 cells, FIG. 3B
  decrease of IC50 upon RICTOR knockdown: > 10 fold

## CC(C)[C@H](C(=O)Nc1ccc(C(=O)NO)cc1)c1ccccc1 [AR-42]
Lung cancer cell [6]
  change in cell proliferation: did not result in significant change
Lung cancer cell [7]
  invasion and migration: significantly further reduced
  lung cancer cell invasion and migration: significantly decreased
Lung cancer cell [8]
  apoptosis: more pronounced apoptosis
  apoptosis (cleaved PARP): increased apoptosis

## CNC(=O)c1cccc(-c2ccc3c(N4CCOC[C@@H]4C)nc(N4CCOC[C@@H]4C)nc3n2)c1 [AZD2014, 3-[2,4-bis[(3S)-3-methylmorpholin-4-yl]pyrido[2,3-d]pyrimidin-7-yl]-N-methylbenzamide]
[3]
  migration and invasion: significantly reduced
[4]
  migration and invasion: significantly reduced

## Nc1cc(C(F)(F)F)c(-c2nc(N3CCOCC3)nc(N3CCOCC3)n2)cn1 [PQR309, 5-(4,6-dimorpholin-4-yl-1,3,5-triazin-2-yl)-4-(trifluoromethyl)pyridin-2-amine]
[3]
  migration and invasion: significantly reduced
[4]
  migration and invasion: significantly reduced

## C=CC(=O)Nc1cc(Nc2nccc(-c3cn(C)c4ccccc34)n2)c(OC)cc1N(C)CCN(C)C [osimertinib]
[9]
  drug response of ER: resistance to both inhibitors
HCC827 OE
  resistance compared to parental HCC827 cells: more resistant
HCC827-R4
  decrease of IC50 upon RICTOR knockdown: > 10 fold
  inhibitory effects on cell proliferation: higher inhibitory effects
PC9-R4
  inhibitory effects on cell proliferation: higher inhibitory effects
ER3-R4
  apoptosis (c-PARP): more pronounced apoptosis
HCC827 OE cells [10]
  apoptosis: less apoptosis

## CC(C)NC[C@@H](C(=O)N1CCN(c2ncnc3c2[C@H](C)C[C@H]3O)CC1)c1ccc(Cl)cc1 [ipatasertib]
Lung cancer cell [6]
  change in cell proliferation: did not result in significant change
Lung cancer cell [7]
  invasion and migration: significantly further reduced
  lung cancer cell invasion and migration: significantly decreased
Lung cancer cell [8]
  apoptosis: more pronounced apoptosis
  apoptosis (cleaved PARP): increased apoptosis

## c1cc(CN2CCCNCCNCCCNCC2)ccc1CN1CCCNCCNCCCNCC1 [AMD3100]
Lung cancer cell [1]; FIG. 11B and C
  SDF-1α-induced invasion and migration: significantly reduced

## C#Cc1cccc(Nc2ncnc3cc(OCCOC)c(OCCOC)cc23)c1 [erlotinib]
ER cells; combination treatment (RICTOR knockdown and erlotinib), western blot of tumor lysate, FIG. 1H
  expression of Axl in xenograft tumors: lowest expression of Axl
ER cells; combined treatment (RICTOR knockdown by doxycycline and erlotinib), vs either approach alone, P<0.05
  tumor growth: markedly blocked tumor growth
ER cells; erlotinib alone, four weeks of treatment, oral gavage daily
  tumor growth: failed to inhibit tumor growth
PC9-R4
  inhibitory effects on cell proliferation: higher inhibitory effects
